What all share (format): in vivo, human
For one data set, the system named is Type I diabetic subjects. In words: Sustacal meal preceded by subcutaneous injection of 100 μg GLIP in Type I diabetics (Example 5). The following applies: 100 μg GLIP sc prior to test meal. An excerpt:
Type I diabetic subjects were studied.
The results are shown in FIG. 5. *indicates statistically significant differences between treatments (p<0.05).

A further data set has as its system Type 1 diabetic subject. In words: GLIP along with insulin subcutaneously prior to Sustacal meal, post-prandial glycaemia (Example 6). The following applies: 50 μg GLIP sc along with 5 units insulin (half the usual dose) prior to Sustacal meal; one subject; FIG. 6 Panel A.
The test system of data set [1] is subjects with remission phase Type I diabetes. In words: Sustacal meal with intravenous GLIP infusion 1.2 pm/kg/min (Example 1). The following applies: IV GLIP 1.2 pm/kg/min for 120 min after Sustacal meal; for gastrin levels / gastrin response: FIG. 1 Panel E. On the procedure: 7 subjects with remission phase Type I diabetes were studied after ingestion of a standardised meal of Sustacal (Upjohn) (delivering […]). Subjects continued their normal insulin treatment programme on the day prior to the test and, on the day of the test, omitted their morning insulin injection and arrived fasting at 8:00 am. […] Infusion was continued for 120 minutes. Blood levels of glucose, C-peptide, gastrin, glucagon and HPP were monitored by standard radioimmunoassay methods in samples taken before and at intervals during the study, up to 180 minutes. On another test day, subjects were given the Sustacal meal alone and the same analytes were similarly monitored.

Data set [2] has the same test system. As to the kind of experiment: Sustacal meal with infusion of 0.75 pm/kg/min GLIP (Example 3). The following applies: versus saline infusion control, FIG. 3. On the procedure:
Four subjects with remission phase Type I diabetes were studied during infusion with 0.75 pm/kg/min-GLIP for 120 minutes after a Sustacal meal.
The test was conducted as described in Example 1 and blood glucose and C-peptide levels were measured. On a further test day, the subjects were studied during saline infusion after a similar Sustacal meal.

The test system is the same in data set [3]. As to the kind of experiment: Intravenous glucose infusion with intravenous GLIP (Example 2). The following applies: IV GLIP 1.2 pm/kg/min for 60 min along with IV glucose 20 g over 60 min; FIG. 2.
Data set [4] can be described thus: Blood levels of GLIP by radioimmunoassay after subcutaneous injection (Example 6). The following applies: 50 μg GLIP sc with 5 units insulin, Type I diabetic subject; FIG. 6 Panel E.
Experimental: (§1) One Type 1 diabetic subject was given GLIP along with insulin and the effects on post-prandial glycaemia observed. The subject received 5 units of insulin and 50 μg GLIP as subcutaneous injections immediately prior to ingestion of a Sustacal meal as described in Example 1. Blood levels of GLIP were monitored by a standard radioimmunoassay method.
The test system of another data set is normal volunteers. In words: Sustacal meal preceded by subcutaneous injection of GLIP in normal volunteers (Example 4). The following applies: 100 μg GLIP sc before Sustacal meal. An excerpt:
Results are shown in FIG. 4. *indicates statistically significant differences between treatments (p<0.05).

Entries after “also recorded” stand apart in the source; their conditions may differ.

Experimental for Type 1 diabetic subject: as §1

For the substance “Glucagon-like peptide 1(7-36)amide [GLIP]”, in the data set with Type I diabetic subjects (FIG. 5 Panel A), the “blood glucose levels compared to control” value is listed as “lowering of blood glucose levels”. For the same substance, the “pancreatic polypeptide (HPP) levels” value in the data set on Type I diabetic subjects (FIG. 5 Panel D) is reported as “delayed rise in pancreatic polypeptide (HPP) levels”. Also, the “insulin secretion over control levels” value in the data set with Type I diabetic subjects (FIG. 5 Panels B and C) is “no enhancement of insulin secretion over control levels”. The “blood glucose after standard meal (highest level)” value in the data set on Type 1 diabetic subject is given as not above 8 mM. Further, in data set [1] (FIG. 1), the “blood levels of C-peptide” value is given as “prevented a significant increase in blood levels of C-peptide” and the “plasma glucagon levels stimulated by the meal” value is reported as “prevented the mean rise in plasma glucagon levels”. The “secretion of pancreatic polypeptide (PP) after the meal” value in data set [1] (FIG. 1 Panel C) is given as “this response was absent”. Besides, the “gastrin levels / gastrin response” value in data set [1] was “not significantly affected”. Moreover, in data set [1] (listed as CLIP), the “gastrin levels / gastrin response” value is on record as “normal gastrin response”. Moreover, in data set [2] (lower dose of GLIP (0.75 pmol/kg/min) along with a meal), the C-peptide entry is “some increase”. Moreover, in data set [2] (lower dose of GLIP (0.75 μmol/kg/min) along with a meal), the blood glucose entry is recorded as “some increase; also recorded: less than in the control experiment”. Also, in data set [3], the “control of blood glucose level” value is “improved control of blood glucose level”. Moreover, the “time to clearance from the blood” value in data set [4] was “about two”. Also, in the data set with normal volunteers, the “increase in blood levels of C-peptide” value is recorded as “delay in increase”, the “increase in blood levels of HPP” value is listed as “delay in increase”, the “increase in blood levels of glucose” value is listed as “delay in increase” and the “increase in blood levels of insulin” value is reported as “delay in increase”.
